# Source: patent US8188059B2, “Compounds and methods for modulating expression of GCGR” (Isis Pharmaceuticals, Inc., priority 2006, dated 2012)
# Strand notation (5' to 3'): a small letter for the sugar, then the base; units joined by * are phosphorothioate-linked, units joined directly phosphodiester-linked; [ ] holds rarer units or linkages, { } end groups; capitals alone tell only the bases. e = 2'-O-(2-methoxyethyl) (MOE); [5mC] = 5-methylcytosine; d = 2'-deoxy (DNA)
# What was measured:
# Assay type in all cases: in vivo, mouse
# [1] = tested on: GCGR mRNA; test: GCGR mRNA levels in liver of C57/BL6 mice, single i.p. dose (Example 4, Tables 35-41); settings: 48 h
# Method: (§1) Eight-week old male C57/BL6 mice (Jackson Laboratory, Bar Harbor, Me.) were administered a single dose of GCGR oligonucleotide by intraperitoneal injection at a concentration of […]. Each dose group consisted of four animals. Shown in Table 31 are the sequences, motifs and conjugates of the GCGR antisense compounds used in this study. Bolded residues indicate 2′-O-methoxyethyl (2′-MOE) moieties. All compounds comprise phosphorothioate internucleoside linkages throughout and each cytosine is replaced with 5-methylcytosine. ISIS 386626, ISIS 386627 and ISIS 386628 further comprise a C16 conjugate group attached to the 2′-O position of the sugar via a diamide linkage (2′-OCH2C(═O)N(H)(CH2)4N(H)C(═O)—(CH2)15CH3). GCGR antisense compounds target published GCGR sequences, including Genbank® Accession No. BC031885.1 (SEQ ID NO: 7).
# (§2) Mice were sacrificed 48 hours following injection to determine serum transaminase levels (Table 32); liver, white adipose tissue (WAT), spleen and kidney weight (Table 33); cholesterol, triglyceride and glucose levels (Table 34); GCGR mRNA levels (Tables 35-41); and full-length and total oligonucleotide concentration in liver and kidney (Table 42). Endpoints were assessed using methods described herein and well known to those of ordinary skill in the art. Data is included from a pre-treatment bleed (Pre-Bleed) and post-treatment bleed (Post-Bleed).
# (§3) To determine whether the phenotypic changes shown above correlated with a decrease in GCGR mRNA, treated animals were evaluated for levels of target mRNA in liver by real time PCR according to methods described herein. Tables 35 to 41 show results from direct comparisons of the antisense compounds targeting GCGR nucleic acid for their effect on target expression. Results are expressed as percent of saline control.
# [2] = Organ weights: liver, white adipose tissue, spleen, kidney (Example 4, Table 33); settings: 48 h, C57/BL6 mice
# Method: as §1, §2
# [3] = Triglyceride, cholesterol and glucose levels, pre-bleed and post-bleed (Example 4, Table 34); parameters: TRIG Pre-Bleed / TRIG Post-Bleed / CHOL Pre-Bleed / CHOL Post-Bleed / Glucose Pre-Bleed / Glucose Post-Bleed: unit not given here; settings: C57/BL6 mice; for CHOL Pre-Bleed / Glucose Pre-Bleed / TRIG Pre-Bleed: pre-treatment bleed; for CHOL Post-Bleed / Glucose Post-Bleed / TRIG Post-Bleed: post-treatment bleed, 48 h
# [4] = Total and full-length antisense compound concentrations in liver and kidney (Example 4, Table 42); settings: C57/BL6 mice; single i.p. dose; 48 h; dose not given
# Method: as §1, §2
# Treatment with the 2-10-2 MOE gapmers led to a significant dose-dependent decrease in GCGR mRNA expression. […] To determine whether the observed increase in efficiency with the short antisense compounds is due to an increase in antisense compound accumulation, full-length and total antisense compound concentration in the liver and kidney were determined.
# [5] = tested on: GCGR mRNA; test: GCGR mRNA levels in liver and estimated ED50, C57/BL6 mice, single i.p. dose (Example 5, Tables 44, 45)
# Method: Eight-week old male C57/BL6 mice (Jackson Laboratory, Bar Harbor, Me.) were administered a single dose of GCGR antisense compound by intraperitonel (i.p.) injection at a concentration of 10, 3.2, 1, and 0.32 μmol·kg. Each dose group consisted of four animals. Shown in Table 43 are the sequences, motifs and conjugates of the GCGR antisense compounds used in this study. Bolded residues indicate 2′-O-methoxyethyl (2′-MOE) modifications and the italicized residues indicate methyleneoxy (4′-CH2—O-2′) BNA modifications. All antisense compounds comprise phosphorothioate internucleoside linkages throughout and each cytosine is replaced with 5-methylcytosine. GCGR antisense compounds target published GCGR nucleic acids, including Genbank Accession No. BC031885.1 (SEQ ID NO: 7).
# as §3, with “by RT,” for “by”, “Table 44” for “Tables 35 to 41”
substance,measurement,setting,value
148364 (antisense eT*eG*e[5mC]*eA*e[5mC]*dT*dT*dT*dG*dT*dG*dG*dT*dA*d[5mC]*e[5mC]*eA*eA*eG*eG) [compound 148364],GCGR mRNA levels in liver,"[1]; 6.25 mg/kg single i.p., Table 35 comparison ISIS 148364 & ISIS 386626",62% of saline control
same,GCGR mRNA levels in liver,"[1]; 6.25 mg/kg single i.p., Table 36 comparison ISIS 148364 & ISIS 386627",86% of saline control
same,GCGR mRNA levels in liver,"[1]; 6.25 mg/kg single i.p., Table 37 comparison ISIS 148364 & ISIS 386593",86% of saline control
same,GCGR mRNA levels in liver,"[1]; 6.25 mg/kg single i.p., Table 38 comparison ISIS 148364 & ISIS 386628",101% of saline control
same,GCGR mRNA levels in liver,"[1]; 6.25 mg/kg single i.p., Table 39 comparison ISIS 148364 & ISIS 386594",96% of saline control
same,GCGR mRNA levels in liver,"[1]; 12.5 mg/kg single i.p., Table 35 comparison ISIS 148364 & ISIS 386626",87% of saline control
same,GCGR mRNA levels in liver,"[1]; 12.5 mg/kg single i.p., Table 36 comparison ISIS 148364 & ISIS 386627",105% of saline control
same,GCGR mRNA levels in liver,"[1]; 12.5 mg/kg single i.p., Table 37 comparison ISIS 148364 & ISIS 386593",105% of saline control
same,GCGR mRNA levels in liver,"[1]; 12.5 mg/kg single i.p., Table 38 comparison ISIS 148364 & ISIS 386628",98% of saline control
same,GCGR mRNA levels in liver,"[1]; 12.5 mg/kg single i.p., Table 39 comparison ISIS 148364 & ISIS 386594",102% of saline control
same,GCGR mRNA levels in liver,"[1]; 25 mg/kg single i.p., Table 35 comparison ISIS 148364 & ISIS 386626",79% of saline control
same,GCGR mRNA levels in liver,"[1]; 25 mg/kg single i.p., Table 36 comparison ISIS 148364 & ISIS 386627",87% of saline control
same,GCGR mRNA levels in liver,"[1]; 25 mg/kg single i.p., Table 37 comparison ISIS 148364 & ISIS 386593",74% of saline control
same,GCGR mRNA levels in liver,"[1]; 25 mg/kg single i.p., Table 38 comparison ISIS 148364 & ISIS 386628",77% of saline control
same,GCGR mRNA levels in liver,"[1]; 25 mg/kg single i.p., Table 39 comparison ISIS 148364 & ISIS 386594",98% of saline control
same,GCGR mRNA levels in liver,"[1]; 50 mg/kg single i.p., Table 35 comparison ISIS 148364 & ISIS 386626",36% of saline control
same,GCGR mRNA levels in liver,"[1]; 50 mg/kg single i.p., Table 36 comparison ISIS 148364 & ISIS 386627",63% of saline control
same,GCGR mRNA levels in liver,"[1]; 50 mg/kg single i.p., Table 37 comparison ISIS 148364 & ISIS 386593",56% of saline control
same,GCGR mRNA levels in liver,"[1]; 50 mg/kg single i.p., Table 38 comparison ISIS 148364 & ISIS 386628",42% of saline control
same,GCGR mRNA levels in liver,"[1]; 50 mg/kg single i.p., Table 39 comparison ISIS 148364 & ISIS 386594",59% of saline control
same,Organ weight: Kidney,[2]; 6.25 mg/kg single i.p.,104 % saline control
same,Organ weight: Liver,[2]; 6.25 mg/kg single i.p.,101 % saline control
same,Organ weight: Spleen,[2]; 6.25 mg/kg single i.p.,113 % saline control
same,Organ weight: WAT,[2]; 6.25 mg/kg single i.p.,89 % saline control
same,Organ weight: Kidney,[2]; 12.5 mg/kg single i.p.,108 % saline control
same,Organ weight: Liver,[2]; 12.5 mg/kg single i.p.,100 % saline control
same,Organ weight: Spleen,[2]; 12.5 mg/kg single i.p.,96 % saline control
same,Organ weight: WAT,[2]; 12.5 mg/kg single i.p.,84 % saline control
same,Organ weight: Kidney,[2]; 25 mg/kg single i.p.,112 % saline control
same,Organ weight: Liver,[2]; 25 mg/kg single i.p.,103 % saline control
same,Organ weight: Spleen,[2]; 25 mg/kg single i.p.,115 % saline control
same,Organ weight: WAT,[2]; 25 mg/kg single i.p.,75 % saline control
same,Organ weight: Kidney,[2]; 50 mg/kg single i.p.,108 % saline control
same,Organ weight: Liver,[2]; 50 mg/kg single i.p.,103 % saline control
same,Organ weight: Spleen,[2]; 50 mg/kg single i.p.,123 % saline control
same,Organ weight: WAT,[2]; 50 mg/kg single i.p.,80 % saline control
same,CHOL Pre-Bleed,[3]; 6.25 mg/kg group,86
same,Glucose Pre-Bleed,[3]; 6.25 mg/kg group,226
same,TRIG Pre-Bleed,[3]; 6.25 mg/kg group,86
same,CHOL Post-Bleed,[3]; 6.25 mg/kg single i.p.,89
same,Glucose Post-Bleed,[3]; 6.25 mg/kg single i.p.,215
same,TRIG Post-Bleed,[3]; 6.25 mg/kg single i.p.,162
same,CHOL Pre-Bleed,[3]; 12.5 mg/kg group,85
same,Glucose Pre-Bleed,[3]; 12.5 mg/kg group,198
same,TRIG Pre-Bleed,[3]; 12.5 mg/kg group,106
same,CHOL Post-Bleed,[3]; 12.5 mg/kg single i.p.,89
same,Glucose Post-Bleed,[3]; 12.5 mg/kg single i.p.,256
same,TRIG Post-Bleed,[3]; 12.5 mg/kg single i.p.,179
same,CHOL Pre-Bleed,[3]; 25 mg/kg group,83
same,Glucose Pre-Bleed,[3]; 25 mg/kg group,219
same,TRIG Pre-Bleed,[3]; 25 mg/kg group,115
same,CHOL Post-Bleed,[3]; 25 mg/kg single i.p.,96
same,Glucose Post-Bleed,[3]; 25 mg/kg single i.p.,239
same,TRIG Post-Bleed,[3]; 25 mg/kg single i.p.,200
same,CHOL Pre-Bleed,[3]; 50 mg/kg group,81
same,Glucose Pre-Bleed,[3]; 50 mg/kg group,207
same,TRIG Pre-Bleed,[3]; 50 mg/kg group,110
same,CHOL Post-Bleed,[3]; 50 mg/kg single i.p.,94
same,Glucose Post-Bleed,[3]; 50 mg/kg single i.p.,228
same,TRIG Post-Bleed,[3]; 50 mg/kg single i.p.,177
same,"Full-length antisense compound concentration, Kidney",[4],58 µg/g
same,"Full-length antisense compound concentration, Liver",[4],46 µg/g
same,"Total antisense compound concentration, Kidney",[4],90 µg/g
same,"Total antisense compound concentration, Liver",[4],54 µg/g
same,GCGR mRNA levels in liver,[5]; 0.32 μmol/kg single i.p.,105% of saline control
same,GCGR mRNA levels in liver,[5]; 1 μmol/kg single i.p.,106% of saline control
same,GCGR mRNA levels in liver,[5]; 3.2 μmol/kg single i.p.,73% of saline control
same,GCGR mRNA levels in liver,[5]; 10 μmol/kg single i.p.,38% of saline control
